Data on 3 compounds can be found in paper PMC3236199, “Development of Derivatives of 3, 3′-Diindolylmethane as Potent Leishmania donovani Bi-Subunit Topoisomerase IB Poisons” (PLoS ONE, 2011).

Each structure is given as a SMILES string.

Test [1] concerns L. donovani topoisomerase II. Nature of the test: Immunoband depletion assay, topoisomerase II. To be noted: 50 µM, antibody against ATPase domain of topoisomerase II. The test is classed as cell-based, Leishmania donovani. How it is done:
Leishmania cells (3×10^7) were cultured in absence and presence of the drugs. Nuclear fractions were isolated as described. Briefly, cells were suspended in hypotonic buffer (10 mM Tris-HCl, pH 7.5, 1 mM EDTA, 0.1 mM EGTA, 1 mM PMSF, 1 mM benzamidine hydrochloride and 5 mM DTT) and homogenized. The homogenate was centrifuged for 10 min at 10,000 g. The pellets were washed and used as the source of nuclear fraction. Thereafter, the nuclear fractions were lysed with 1% SDS and subjected to SDS-PAGE (10%). The proteins were electrophoretically transferred to nitrocellulose membranes and immumobloting of immobilized proteins were carried out using a rabbit polyclonal antibody raised against LdTOP1S for topoisomerase I and ATPase domain of L. donovani topoisomerase II [8].
To rule out the topoisomerase II mediated cleavable complex stabilization by the derivatives, we have carried out immunoband depletion assay with antibody raised against ATPase domain (43 kDa) of L. donovani topoisomerase II.
Supplementary file pone.0028493.s001.tif: Figure S1 Stabilization of topoisomerase-II mediated cleavable complex was determined by immunoband depletion assay. Immunoband depletion of L. donovani topoisomerase II, using an antibody raised against LdTOP2 (ATPase domain, 43 kDa). […]

For test [2], the system named is F270L mutant topoisomerase I. The settings on record: cited from earlier work.
Test [3] has as its system DIM resistant DR50 promastigotes. The test can be described thus: Change in IC50 on prolonged exposure of DIM resistant promastigotes. In kind it is cell-based. To be noted: Leishmania donovani. How it is done:
L. donovani strain AG83 and DIM resistant parasite DR50 promastigotes were grown at 22°C in M199 liquid media supplemented with 10% FBS as described. Axenic amastigotes were cultured in modified M199 medium (pH 5.3) supplemented with 10 mM sodium succinate, 40 mM HEPES and 25% FCS and maintained at 37°C with 5% CO2.The effect of drugs on the viability of Leishmania parasites was determined by direct microscopic counting using light microscope (40× objective) in a haemocytometer. The cells at the exponential phase were collected and transferred into 24-well plate (3.5×10^6 cells per well). The cells were then incubated for 12 h in the presence of various concentrations of DIM, DPDIM, DMDIM and DMODIM (1, 5, 10, 20 and 50 µM). For other experiments, 10^4 cells were taken and grown in presence of the respective derivatives for a period of 30 days. For each 5 day interval, a small amount of aliquots were taken out. After incubation the cells were centrifuged and cell pellet was washed with PBS (1×) twice and finally suspended in 1 ml PBS (1×). […] One drop of the mixture was transferred to haemocytometer and the clear (live) and blue (dead) cells were counted. The total number of viable cells in aliquot was calculated by multiplying the total number of viable cells by 2 (the dilution factor for trypan blue). […] Percentages of viable cells were calculated using the formula: [drawing 1]
Figure 2 Effect of DIM-derivatives on Leishmania parasites. Growth of L. donovani AG83 promastigotes (A) and DIM resistant promastigotes (B) were monitored in presence of increasing concentrations (1, 5, 10, 20 and 50 µM) of DIM, DPDIM, DMDIM and DMODIM for 12 h. […] Change in IC50 values after a prolong exposure to DIM derivatives (C) has been assessed as described in Materials and Methods. After every 5 day a small aliquot was taken out and number of viable promastigotes was counted for each concentration. IC50 values have been determined from them using Graph Pad Prsim ver 5.0 software and a graphical plot was generated over time. […]

For `c1ccc2c(Cc3c[nH]c4ccccc34)c[nH]c2c1` [DIM, 3, 3′-diindolyl methane, reference compound], in test [1], the “stabilization of topoisomerase II mediated cleavage complex” value was “do not stabilize cleavage complex formation”. Also, the “sensitivity of F270L topoisomerase I mutant” value in test [2] was “insensitive”. In turn, `COc1ccc2[nH]cc(Cc3c[nH]c4ccc(OC)cc34)c2c1` [DMODIM, 5,5′-dimethoxy 3,3′-diindolyl methane] had an IC50 in test [3] (24 h) of 7.26 µM. `c1ccc(-c2[nH]c3ccccc3c2Cc2c(-c3ccccc3)[nH]c3ccccc23)cc1` [DPDIM, 2,2′-diphenyl 3,3′-diindolyl methane]: the IC50 is 0.05 µM in test [3] and 2.3 µM in test [3] (24 h).
